{
  "source": "Sander's compilation of Henry's law constants (doi:10.1016/0045-6535(88)90142-7)",
  "origin": "cited, not measured here",
  "data": [
    {"assay": "Henry solubility constant Hcp at 298.15 K (mol/(m3 Pa))", "settings": "reference: Ryan et al. (1988); cited value", "values": [
      {"smiles": "CC(Cl)CCl", "note": "(stereo not drawn) [1,2-dichloropropane]", "Henry solubility constant Hcp": 0.0034},
      {"smiles": "ClC(Cl)(Cl)Cl", "note": "[tetrachloromethane]", "Henry solubility constant Hcp": 0.00045},
      {"smiles": "CCCl", "note": "[chloroethane]", "Henry solubility constant Hcp": 0.00066},
      {"smiles": "Cc1ccccc1", "note": "[methylbenzene]", "Henry solubility constant Hcp": 0.0014},
      {"smiles": "ClC(Cl)=C(Cl)Cl", "note": "[tetrachloroethene]", "Henry solubility constant Hcp": 0.00063},
      {"smiles": "CCBr", "note": "[bromoethane]", "Henry solubility constant Hcp": "9.2e-05"},
      {"smiles": "ClC1=C(Cl)[C@]2(Cl)[C@H]3[C@H]([C@@H]4C=C[C@H]3C4)[C@@]1(Cl)C2(Cl)Cl", "note": "[aldrin]", "Henry solubility constant Hcp": 0.82},
      {"smiles": "c1ccc2c(c1)ccc1c3ccccc3ccc21", "note": "[chrysene]", "Henry solubility constant Hcp": 0.0046},
      {"smiles": "Clc1cccc(Cl)c1", "note": "[1,3-dichlorobenzene]", "Henry solubility constant Hcp": 0.0037},
      {"smiles": "O=[N+]([O-])c1ccccc1O", "note": "[2-nitrophenol]", "Henry solubility constant Hcp": 1.3},
      {"smiles": "ClC1=C(Cl)[C@]2(Cl)[C@@H]3[C@H]4C[C@H]([C@@H]5O[C@H]45)[C@@H]3[C@@]1(Cl)C2(Cl)Cl", "note": "[endrin]", "Henry solubility constant Hcp": 24},
      {"smiles": "c1ccc2cc3ccccc3cc2c1", "note": "[anthracene]", "Henry solubility constant Hcp": 0.037},
      {"smiles": "c1ccc2c(c1)Cc1ccccc1-2", "note": "[2,3-benzindene]", "Henry solubility constant Hcp": 0.084},
      {"smiles": "ClC1=C(Cl)C(Cl)(Cl)C(Cl)=C1Cl", "note": "[hexachlorocyclopentadiene]", "Henry solubility constant Hcp": 0.00027},
      {"smiles": "CCCCOC(=O)c1ccccc1C(=O)OCCCC", "note": "[dibutyl phthalate]", "Henry solubility constant Hcp": 34},
      {"smiles": "Clc1ccc2ccccc2c1", "note": "[2-chloronaphthalene]", "Henry solubility constant Hcp": 0.031},
      {"smiles": "C=CC=O", "note": "[propenal]", "Henry solubility constant Hcp": 0.14},
      {"smiles": "O=[N+]([O-])c1ccccc1", "note": "[nitrobenzene]", "Henry solubility constant Hcp": 0.75},
      {"smiles": "ClC=C(Cl)Cl", "note": "[trichloroethene]", "Henry solubility constant Hcp": 0.0011},
      {"smiles": "ClC(Cl)=C(c1ccc(Cl)cc1)c1ccc(Cl)cc1", "note": "[1,1-dichloro-2,2-bis-(4-chlorophenyl)-ethene]", "Henry solubility constant Hcp": 0.45},
      {"smiles": "CC(CCl)OC(C)CCl", "note": "(stereo not drawn) [bis-(2-chloroisopropyl) ether]", "Henry solubility constant Hcp": 0.0086},
      {"smiles": "c1ccc2c(c1)-c1cccc3cccc-2c13", "note": "[benzo[jk]fluorene]", "Henry solubility constant Hcp": 1},
      {"smiles": "ClC(Cl)=C(Cl)C(Cl)=C(Cl)Cl", "note": "[hexachlorobutadiene]", "Henry solubility constant Hcp": 0.00094},
      {"smiles": "ClCC(Cl)Cl", "note": "[1,1,2-trichloroethane]", "Henry solubility constant Hcp": 0.0013},
      {"smiles": "CC(Cl)(Cl)Cl", "note": "[1,1,1-trichloroethane]", "Henry solubility constant Hcp": 0.00031},
      {"smiles": "C1=Cc2cccc3cccc1c23", "note": "[acenaphthylene]", "Henry solubility constant Hcp": 0.084},
      {"smiles": "O=[N+]([O-])c1ccc(O)cc1", "note": "[4-nitrophenol]", "Henry solubility constant Hcp": 1.6},
      {"smiles": "Oc1ccc(Cl)cc1Cl", "note": "[2,4-dichlorophenol]", "Henry solubility constant Hcp": 1.8},
      {"smiles": "Oc1ccccc1Cl", "note": "[2-hydroxychlorobenzene]", "Henry solubility constant Hcp": 2.1},
      {"smiles": "ClC(Cl)C(Cl)Cl", "note": "[1,1,2,2-tetrachloroethane]", "Henry solubility constant Hcp": 0.025},
      {"smiles": "CCc1ccccc1", "note": "[ethylbenzene]", "Henry solubility constant Hcp": 0.0016},
      {"smiles": "c1ccc2ccccc2c1", "note": "[naphthalene]", "Henry solubility constant Hcp": 0.02},
      {"smiles": "FC(F)(Cl)Cl", "note": "[dichlorodifluoromethane]", "Henry solubility constant Hcp": "6.4e-06"},
      {"smiles": "ClC1=C(Cl)[C@]2(Cl)[C@@H]3[C@@H]4C[C@@H]([C@H]5O[C@@H]45)[C@@H]3[C@@]1(Cl)C2(Cl)Cl", "note": "[dieldrin]", "Henry solubility constant Hcp": 1.3},
      {"smiles": "CCCCCCCCOC(=O)c1ccccc1C(=O)OCCCCCCCC", "note": "[dioctyl phthalate]", "Henry solubility constant Hcp": 34},
      {"smiles": "c1ccc2c(c1)ccc1ccccc12", "note": "[phenanthrene]", "Henry solubility constant Hcp": 0.25},
      {"smiles": "ClC1=C(Cl)[C@]2(Cl)C3C(Cl)C(Cl)CC3[C@@]1(Cl)C2(Cl)Cl", "note": "(stereo partly drawn) [chlordane]", "Henry solubility constant Hcp": 0.1},
      {"smiles": "BrC(Br)Br", "note": "[tribromomethane]", "Henry solubility constant Hcp": 0.017},
      {"smiles": "ClC1=C(Cl)C2(Cl)C3C(Cl)C=CC3C1(Cl)C2(Cl)Cl", "note": "(stereo not drawn) [heptachlor]", "Henry solubility constant Hcp": 0.0065},
      {"smiles": "ClCCOCOCCCl", "note": "[bis-(2-chloroethoxy)-methane]", "Henry solubility constant Hcp": 37},
      {"smiles": "Clc1ccc(C(c2ccc(Cl)cc2)C(Cl)(Cl)Cl)cc1", "note": "[1,1,1-trichloro-2,2-bis-(4-chlorophenyl)-ethane]", "Henry solubility constant Hcp": 0.2},
      {"smiles": "Cc1ccc(O)c(C)c1", "note": "[1-hydroxy-2,4-dimethylbenzene]", "Henry solubility constant Hcp": 0.54},
      {"smiles": "C=C(Cl)Cl", "note": "[1,1-dichloroethene]", "Henry solubility constant Hcp": 0.0022},
      {"smiles": "ClC1=C(Cl)C2(Cl)C3C4OC4C(Cl)C3C1(Cl)C2(Cl)Cl", "note": "(stereo not drawn) [heptachlorepoxide]", "Henry solubility constant Hcp": 13},
      {"smiles": "Clc1ccc(C(c2ccc(Cl)cc2)C(Cl)Cl)cc1", "note": "[1,1-dichloro-2,2-bis-(4-chlorophenyl)-ethane]", "Henry solubility constant Hcp": 0.00081},
      {"smiles": "c1cc2c3c(cccc3c1)CC2", "note": "[acenaphthene]", "Henry solubility constant Hcp": 0.04},
      {"smiles": "CCCCC(CC)COC(=O)c1ccccc1C(=O)OCC(CC)CCCC", "note": "(stereo not drawn) [bis(2-ethylhexyl)-phthalate]", "Henry solubility constant Hcp": 34},
      {"smiles": "COC(=O)c1ccccc1C(=O)OC", "note": "[dimethyl phthalate]", "Henry solubility constant Hcp": 50},
      {"smiles": "O=[N+]([O-])c1ccc(O)c([N+](=O)[O-])c1", "note": "[2,4-dinitrophenol]", "Henry solubility constant Hcp": 15000},
      {"smiles": "ClC(Cl)(Cl)C(Cl)(Cl)Cl", "note": "[hexachloroethane]", "Henry solubility constant Hcp": 0.00098},
      {"smiles": "Cc1cc(O)ccc1Cl", "note": "[4-chloro-3-methylphenol]", "Henry solubility constant Hcp": 4},
      {"smiles": "CCCCOC(=O)c1ccccc1C(=O)OCc1ccccc1", "note": "[butyl benzyl phthalate]", "Henry solubility constant Hcp": 9.6},
      {"smiles": "c1ccccc1", "note": "[benzene]", "Henry solubility constant Hcp": 0.0018},
      {"smiles": "ClCOCCl", "note": "[bis-(chloromethyl) ether]", "Henry solubility constant Hcp": 0.0047},
      {"smiles": "ClCCl", "note": "[dichloromethane]", "Henry solubility constant Hcp": 0.0047},
      {"smiles": "ClC1C(Cl)C(Cl)C(Cl)C(Cl)C1Cl", "note": "(stereo not drawn) [β-1,2,3,4,5,6-hexachlorocyclohexane]", "Henry solubility constant Hcp": 0.67},
      {"smiles": "Clc1ccc(Cl)cc1", "note": "[1,4-dichlorobenzene]", "Henry solubility constant Hcp": 0.0041},
      {"smiles": "ClCCOCCCl", "note": "[1,5-dichloro-3-oxapentane]", "Henry solubility constant Hcp": 8.6},
      {"smiles": "c1ccc2c(c1)cc1ccc3cccc4ccc2c1c34", "note": "[benzo[a]pyrene]", "Henry solubility constant Hcp": 0.00082},
      {"smiles": "Clc1ccccc1", "note": "[chlorobenzene]", "Henry solubility constant Hcp": 0.0027},
      {"smiles": "ClC=CCCl", "note": "[1,3-dichloropropene]", "Henry solubility constant Hcp": 0.0081},
      {"smiles": "C=CCl", "note": "[chloroethene]", "Henry solubility constant Hcp": 0.00065},
      {"smiles": "C=CC#N", "note": "[2-propenenitrile]", "Henry solubility constant Hcp": 0.11}
    ]}
  ]
}
